US4960900A, “Oxyimino derivatives of thiazole, method of preparation and use in therapy” (priority 1987, dated 1990)
Like-named read-outs stand apart in the source and are kept apart here.

How the values were obtained:
male mice [1] = assay: in vivo; details: for LD50: Table II, oral, male mice, 14 days
Experimental: (§1) The toxicity of the products to be studied was investigated by the oral administration, using an esophageal tube, of each of the said products to male mice with a body weight of 18 to 22 g, divided into groups each containing 10 to 20 animals. The mortality was recorded over a 14-day period.
(§2) The results obtained, which are expressed in the form of LD50 in mg/kg, are collated in Table II below.

in vivo [2] = details: mouse, in vivo, po; for LD50 at 336 h: male mice; for selectivity ratio: LD50 per os/ED50 per os
Experimental: as §1, §2

[3] = system: convulsions induced by supramaximal electroshock (MCE); assay: Anticonvulsant properties: convulsions induced by supramaximal electroshock (MCE), oral, mice; format: in vivo; details: per os, male mice, 30 min after administration; for ED50: Mus musculus, po, 0.5 h, read-out: ED50 in respect of convulsions induced by MCE
Experimental: (§7) The anticonvulsant properties were investigated on male mice, thirty minutes after the oral administration of the substances to be studied, by the induction of convulsive seizures.
These seizures are caused either by the intraperitoneal injection of pentetrazole (125 mg/kg) or by electrical stimulation of the cornea (supra-maximal electroshock, abbreviated to MCE).
MCE: supramaximal electroshock;
*: ED50 in mg/kg, determined per os on groups each containing ten

[4] = system: convulsions induced by pentetrazole (PTZ); assay: Anticonvulsant properties: convulsions induced by pentetrazole (PTZ), oral, mice; format: in vivo; details: per os, male mice, 30 min after administration, pentetrazole 125 mg/kg i.p.; for ED50: Mus musculus, po, 0.5 h, read-out: ED50 in respect of convulsions induced by PTZ
Source text: as §7

male mice [5] = assay: in vivo; format: in vivo; details: versus sodium valproate and trimethadione
Experimental: (§3) The neurotoxic properties were assessed on male mice by the so-called "Rota-rod" test carried out thirty minutes after the oral administration of the substances to be studied. The animals (divided into groups each containing ten male mice per dose and per product) are installed on the rod and their fall is observed over the next two minutes.
(§4) The results obtained are expressed in the form of the 50% neurotoxic dose (TD50) per os, which is the dose causing 50% of the animals to fall.
(§5) Protection index: TD50 per os/ED50 per os
(§6) *dose determined per os on groups each containing ten male mice.

in vivo [6] = format: in vivo; details: mouse, in vivo, po; for selectivity ratio: TD50 per os/ED50 per os
Experimental: as §3, §4, §5, §6

[7] = PTZ, read-out: Protection index PTZ
[8] = MCE, read-out: Protection index MCE

Row | Compound | LD50 at 336 h (in vivo [2]; LD50, Table II, 14 days) [mg/kg] | ED50 [3] [mg/kg] | ED50 [4] [mg/kg] | further results
1 | CC(=NOCc1cccc(C(F)(F)F)c1)c1scnc1C [Ex. 16] | > 1000 | > 200 | 96 | therapeutic indices compared with the reference products (male mice [1]; versus sodium valproate and trimethadione): better than those of the reference products; LD50 at 336 h (in vivo [2]; LD50, Table IV, per os): > 1000 mg/kg; selectivity ratio (in vivo [2]; Therapeutic index PTZ, PTZ): > 10.4; protection indices compared with the reference products (male mice [5]): better than those of the reference products; selectivity ratio (in vivo [6]; [7]): 15.6; TD50 at 0.5 h (in vivo [6]; Rota-rod, per os, male mice, 30 min after administration, read-out: TD50): 1500 mg/kg
2 | CCOc1ccccc1CON=C(C)c1scnc1C [Ex. 17] | > 1000 | > 200 | > 200 | –
3 | COC(=O)CON=C(C)c1scnc1C [Ex. 18] | > 1000 | > 200 | > 200 | –
4 | CC(=NOCC(=O)O)c1scnc1C [Ex. 19] | > 1000 | > 200 | > 200 | –
5 | CC(=NOCCN(C)C)c1scnc1C [Ex. 20] | > 1000 | > 200 | > 200 | –
6 | CC(=NOCCN1CCCC1)c1scnc1C [Ex. 21] | 360 | > 200 | > 200 | –
7 | CC(=NO)c1sc(Cl)nc1C [Ex. 22] | > 1000 | > 200 | > 200 | –
8 | CC(=NO)c1sc(Br)nc1C [Ex. 23] | > 1000 | > 200 | > 200 | –
9 | CON=C(C)c1sc(Cl)nc1C [Ex. 24] | > 1000 | > 200 | > 200 | –
10 | CON=C(C)c1sc(Br)nc1C [Ex. 25] | > 1000 | > 200 | > 200 | –
11 | CON=C(C)c1sc(C)nc1C [Ex. 26] | > 1000 | > 200 | > 200 | –
12 | CON=C(C)c1sc(C)nc1C [Ex. 27] | – | – | – | LD50 (male mice [1]; 20160 min): 1000 mg/kg; ED50 in respect of convulsions induced by MCE [3]: > 200 mg/kg; ED50 in respect of convulsions induced by PTZ [4]: > 200 mg/kg
13 | CC(=NO)c1scnc1C [Ex. 28, 5-(1-hydroxyiminoethyl)-4-methylthiazole] | 1000 | > 200 | 126 | –
14 | CC(=NO)c1scnc1C [Ex. 29] | – | – | – | LD50 (male mice [1]): 1000 mg/kg; ED50 in respect of convulsions induced by MCE [3]: > 200 mg/kg; ED50 in respect of convulsions induced by PTZ ([4]; 30 min): 200 mg/kg
15 | CN1C(=O)OC(C)(C)C1=O [TRIM, trimethadione, reference compound] | – | 500 | – | selectivity ratio (in vivo [2]; Therapeutic index MCE, MCE): 4.4; selectivity ratio (in vivo [2]; Therapeutic index PTZ, PTZ): 8.7; selectivity ratio (in vivo [6]; [8]): 2; selectivity ratio (in vivo [6]; [7]): 4
16 | CCCC(CCC)C(=O)O [VALP, sodium valproate, reference compound] | – | – | – | selectivity ratio (in vivo [2]; Therapeutic index MCE, MCE): 4; selectivity ratio (in vivo [2]; Therapeutic index PTZ, PTZ): 4; selectivity ratio (in vivo [6]; [8]): 2.8; selectivity ratio (in vivo [6]; [7]): 2.7
